A short description of data set [1]: Dog plasma protein binding (PPB). Type of data set: in vitro ADME. The settings on record: for fraction unbound at 30 min, 1000 nmol/L: pH 7.4. The source says: Dog PPB values presented below are obtained essentially as described for Human PPB samples, with the difference being that dog serum is used instead of human serum. Table 10 is provided with the values of (Fu,plasma) as fraction unbound expressed as a percentage compared to the percent bound. i.e. if the value is 0.0123, then the fraction unbound is […], which is 1.23% of the peptide is unbound and 98.77% is bound in plasma. Methods and analysis for performing the dog PPB protocol and results are the same as noted herein as for the Human PPB protocol and analysis.

Data set [2] in a line: Human plasma protein binding (PPB). Type of data set: in vitro ADME. As to conditions: for fraction unbound at 30 min, 1000 nmol/L: both sexes, pH 7.4. Here is the method: Stock solutions: (1000 μM) of the peptides are prepared in DMSO.
Human plasma (mixed gender; containing K2-EDTA as anti-coagulant; pre-adjusted to pH 7.4—NB alternative species may be used) is spiked individually with each test peptide (1000 nmol/L), sampled for analysis and then incubated (n=4) at 37° C. in a water bath for 30 minutes. Following the incubation period, the plasma is sampled for analysis, then transferred to ultracentrifugation tubes and centrifuged (n=3) at […] and 4° C. for 3 hours, after which the supernatant is sampled for analysis. An additional aliquot of the supernatant is taken at the end of the centrifugation period to determine the total protein concentration. An aliquot of the incubated plasma will be stored at 4° C. for 3 hours and then sampled for analysis. At the point of sampling, all samples are matrix-matched, treated with ice-cold acetonitrile/methanol (4:1 (vfv)) containing internal standard, centrifuged al 2000 g and 4° C. for 10 minutes and stored prior to LC-MS/MS analysis. An appropriate positive control compound control will be incubated and centrifuged in parallel; control plasma is also centrifuged to generate samples for matrix-matching. Fraction unbound in plasma (Fuplasma) values is determined by comparison of the analyte response in plasma to the analyte response in the supernatant, determined via peak area response ratios.
The samples are analyzed by LC-MS/MS using a 6500 (or equivalent) triple quadrupole mass spectrometer (AB Sciex) coupled to an appropriate Liquid Chromatography (LC) system. Protein binding and stability values are determined via peak area ratios using multiple reaction monitoring (MRM) parameters following compound optimisation. Multiple reaction monitoring (MRM) is a highly sensitive method of targeted mass spectrometry (MS) that can be used to selectively detect and quantify peptides based on the screening of specified precursor peptide-to-fragment ion transitions.

For data set [3], the target named is T1, human GLP-1R (Homo sapiens, UniProt P43220).
T1 construct: HEK-293T cells overexpressing full-length human GLP-1R; FLAG (N); host or cells: HEK-293T
The data set is described as follows: Human GLP1R agonist activity, intracellular cAMP accumulation. Type of data set: cell-based. As to conditions: Human GLP1R cAMP EC50, HEK293T (nM), HEK-293T cells overexpressing human GLP-1R, 1 hr. The method, boiled down:
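cAMP accumulation is measured by HTRF after a 1 hr, room-temperature, dark exposure of thawed cells (4×10^5 cells/mL in Krebs Ringer buffer) to compound. Activity is scaled between DMSO alone as 0% and 1 nm GLP-1 as 100%.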
Background: Cyclic AMP is a second messenger, typically raised through Gs and lowered through Gi signalling.

Data set [4] has as its system C57BL/6J mice. The data set is described as follows: Oral glucose tolerance test (OGTT). Type of data set: in vivo. The settings on record: 3 nmol/kg s.c., 24 hours before glucose loading. The method, boiled down:
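Peptide or vehicle given s.c. at 0.1, 0.3, 3 or 10 nmol/kg (peptide-dependent), 24 h before oral 50% dextrose at 5 ml/kg unless stated otherwise. Blood glucose read at 0, 15, 30 and 60 min. % inhibition = (1−(AUC cpd−AUC naïve)/(AUC veh−AUC naïve))×100.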

Data set [5] is described as follows: Pharmacokinetics in dog after IV and SC dosing. The settings on record: in vivo, 3 nmol/kg; for half-life: iv; for MRT last: sc. As for the experimental part:
Pharmacokinetic (PK) were conducted in dog in order to determine the half-life after IV and SC dosing. The peptide was dissolved in 10% DMSO/0.09% Polysorbate/PBS pH 7.4 to a concentration of 3 nmol/mL and the animal were dose with a volume of 1 mL/kg SC or IV. Blood sample were collected at 0, 0.033, 0.083, 0.25, 0.5, 1, 2, 4, 6, 8, 12, 24, 48, 72, 96, 120, 168, 336 hours for IV dosing and 0.25, 0.5, 1, 2, 4, 6, 8, 12, 24, 48, 72, 96, 120, 168, 336 for SC dosing, EDTA-K2 was used as anticoagulant. The plasma concentration of the peptide was measured using LCMS. Allometric scaling of lipidated peptide pharmacokinetics including T1/2 and MRT is known in the art for rodent to dog and mini pig and to humans. […] See for example, Discovery and Development of Liraglutide and Semaglutide. Knudsen, L. B.; Lau, J. Frontiers in Endocrinology, 2019, vol 10, Article 155.

The nature of data set [6]: physchem. The gist of the method:
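Solubility at pH 7.4 determined by stepwise addition of 200 mM phosphate buffer in 100 μL increments to 3 mg peptide, mixing briefly each time, until no insoluble material remained, then measured by liquid chromatography.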

Structures are written as SMILES. Starred links: 1 amine or outer side, 2 acyl side, 3 side chain; linkers in the order of their positions; H or OH if unused. Non-standard residues stand in square brackets, D forms with d. Residues, ends and D or L forms follow the SMILES beside them. Groups on a side chain read outwards from the residue. *: point of attachment. C18 diacid = O=C(O)CCCCCCCCCCCCCCCCC(=O)*; γGlu = O=C(O)[C@H](CCC(=O)[*:2])N[*:1]; NMeY = CN[C@@H](Cc1ccc(O)cc1)C(=O)O; AEEA = NCCOCCOCC(=O)O; Aib = CC(C)(N)C(=O)O

As a reminder, the EC50 is the concentration needed to bring the measured effect to its halfway point. The low end stands for a more potent agent, the high end for a less potent agent. A word on the half-life: it is how long it takes for the measured level to halve. A low value points to fast loss. By MRT last is commonly meant a mean duration of stay, worked out from the concentration-time curve. The term solubility denotes the concentration that dissolves in the medium under given conditions. Higher therefore signals much dissolved substance.

T1 sequence (P43220 24-463): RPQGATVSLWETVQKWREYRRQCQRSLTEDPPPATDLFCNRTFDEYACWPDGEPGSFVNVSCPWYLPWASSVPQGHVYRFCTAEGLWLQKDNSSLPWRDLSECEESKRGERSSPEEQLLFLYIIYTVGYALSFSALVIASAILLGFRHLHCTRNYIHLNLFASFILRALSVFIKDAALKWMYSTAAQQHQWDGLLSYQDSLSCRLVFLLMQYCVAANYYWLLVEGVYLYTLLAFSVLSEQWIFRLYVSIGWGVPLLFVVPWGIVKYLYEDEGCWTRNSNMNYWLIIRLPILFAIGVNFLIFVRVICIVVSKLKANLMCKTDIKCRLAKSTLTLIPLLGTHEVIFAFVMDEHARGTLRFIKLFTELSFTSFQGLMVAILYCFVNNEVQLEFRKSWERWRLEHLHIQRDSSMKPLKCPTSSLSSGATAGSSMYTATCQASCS

As for `CC[C@H](C)[C@H](NC(=O)[C@H](CO)NC(=O)[C@H](Cc1ccc(O)cc1)NC(=O)[C@H](CC(=O)O)NC(=O)[C@H](CO)NC(=O)[C@@H](NC(=O)[C@H](Cc1ccccc1)NC(=O)[C@@H](NC(=O)CNC(=O)[C@H](CCC(=O)O)NC(=O)C(C)(C)NC(=O)[C@H](Cc1ccc(O)cc1)NC)[C@@H](C)O)[C@@H](C)CC)C(=O)N[C@@H](C)C(=O)N[C@@H](CCCCNC(=O)CNC(=O)CNC(=O)CNC(=O)CNC(=O)CNC(=O)CCCCCCCCCCCCCCCCCCC(=O)O)C(=O)N[C@@H](CC(=O)O)C(=O)N[C@@H](CCCNC(=N)N)C(=O)NC(C)(C)C(=O)N[C@@H](C)C(=O)N[C@@H](CCC(N)=O)C(=O)NC(C)(C)C(=O)N[C@@H](CC(N)=O)C(=O)N[C@@H](Cc1ccccc1)C(=O)N[C@H](C(=O)N[C@@H](CC(N)=O)C(=O)N[C@@H](Cc1c[nH]c2ccccc12)C(=O)N[C@@H](CC(C)C)C(=O)N[C@@H](CC(C)C)C(=O)N[C@@H](C)C(=O)N[C@@H](CCC(N)=O)C(=O)N[C@@H](CO)C(=O)N1CCC[C@H]1C(=O)N[C@@H](CO)C(=O)N[C@@H](CO)C(=O)NCC(=O)N[C@@H](C)C(=O)N1CCC[C@H]1C(=O)N1CCC[C@H]1C(=O)N1CCC[C@H]1C(=O)N[C@@H](CO)C(=O)O)C(C)C` [Compound 40], in data set [1] (fraction unbound, dog serum, read-out: Dog PPB (FUplasma)), the fraction unbound at 30 min, 1000 nmol/L was found to be 0.0004. In addition, the “Human PPB (FUplasma)” value in data set [2] (fraction unbound, human plasma, 1000 nmol/L peptide, ultracentrifugation) is less than 0.002. Further, it took 5.6 nM to reach a half-maximal effect in data set [3] (EC50). In data set [4], the “Oral Glucose Tolerance Test Percent decrease in blood glucose AUC (%) over 60 mins” value is given as 102% (3 nmol/kg).

The compound `CC[C@H](C)[C@H](NC(=O)[C@H](CO)NC(=O)[C@H](Cc1ccc(O)cc1)NC(=O)[C@H](CC(=O)O)NC(=O)[C@H](CO)NC(=O)[C@@H](NC(=O)[C@H](Cc1ccccc1)NC(=O)[C@@H](NC(=O)CNC(=O)[C@H](CCC(=O)O)NC(=O)C(C)(C)NC(=O)[C@H](Cc1ccc(O)cc1)NC)[C@@H](C)O)[C@@H](C)CC)C(=O)N[C@@H](C)C(=O)N[C@@H](CC(C)C)C(=O)N[C@@H](CC(=O)O)C(=O)N[C@@H](CCCNC(=N)N)C(=O)NC(C)(C)C(=O)N[C@@H](CCCCNC(=O)COCCOCCNC(=O)COCCOCCNC(=O)CC[C@H](NC(=O)CC[C@H](NC(=O)CCCCCCCCCCCCCCCCC(=O)O)C(=O)O)C(=O)O)C(=O)N[C@@H](CCC(N)=O)C(=O)NC(C)(C)C(=O)N[C@@H](CC(N)=O)C(=O)N[C@@H](Cc1ccccc1)C(=O)N[C@H](C(=O)N[C@@H](CC(N)=O)C(=O)N[C@@H](Cc1c[nH]c2ccccc12)C(=O)N[C@@H](CC(C)C)C(=O)N[C@@H](CC(C)C)C(=O)N[C@@H](C)C(=O)N[C@@H](CCC(N)=O)C(=O)N[C@@H](CO)C(=O)N1CCC[C@H]1C(=O)N[C@@H](CO)C(=O)N[C@@H](CO)C(=O)NCC(=O)N[C@@H](C)C(=O)N1CCC[C@H]1C(=O)N1CCC[C@H]1C(=O)N1CCC[C@H]1C(=O)N[C@@H](CO)C(N)=O)C(C)C` [Compound 293, Me-Y-Aib-E-G-T-F-I-S-D-Y-S-I-A-L-D-R-Aib-Km-Q-Aib-N-F-V-N-W-L-L-A-Q-S-P-S-S-G-A-P-P-P-S-NH2] (H-[NMeY][Aib]EGTFISDYSIALDR[Aib]K([AEEA-AEEA-γGlu-γGlu-C18 diacid])Q[Aib]NFVNWLLAQSPSSGAPPPS-NH2) had a fraction unbound at 30 min, 1000 nmol/L in data set [1] (dog, serum) of less than 0.002. Moreover, in data set [5], the half-life is 68 h and the MRT last stood at 83 h. The solubility in data set [6] (pH 7.4) is no less than 15 mg/mL. The same compound displayed a solubility in data set [6] (pH 7.4, aqueous buffer) of no less than 30 mg/mL. Besides, in data set [2] (human, plasma), the fraction unbound at 30 min, 1000 nmol/L is less than 0.002 and the “free unbound peptide in human plasma (in words)” value was “optimum free unbound peptide”.

For `CC[C@H](C)[C@H](NC(=O)[C@H](Cc1ccccc1)NC(=O)[C@@H](NC(=O)CNC(=O)[C@H](CCC(=O)O)NC(=O)C(C)(C)NC(=O)[C@H](Cc1ccc(O)cc1)NC)[C@@H](C)O)C(=O)N[C@@H](CO)C(=O)N[C@@H](CC(=O)O)C(=O)N[C@@H](Cc1ccc(O)cc1)C(=O)N[C@@H](CO)C(=O)N[C@H](C(=O)NC(C)(C)C(=O)N[C@@H](CC(C)C)C(=O)N[C@@H](CC(=O)O)C(=O)N[C@@H](CCCNC(=N)N)C(=O)NC(C)(C)C(=O)N[C@@H](C)C(=O)N[C@@H](CCC(N)=O)C(=O)NC(C)(C)C(=O)N[C@@H](CC(N)=O)C(=O)N[C@@H](Cc1ccccc1)C(=O)N[C@H](C(=O)N[C@@H](CC(N)=O)C(=O)N[C@@H](Cc1c[nH]c2ccccc12)C(=O)N[C@@H](CC(C)C)C(=O)N[C@@H](CC(C)C)C(=O)N[C@@H](C)C(=O)N[C@@H](CCC(N)=O)C(=O)N[C@@H](CCCCNC(=O)COCCOCCNC(=O)COCCOCCNC(=O)CC[C@H](NC(=O)CC[C@H](NC(=O)CCCCCCCCCCCCCCCCC(=O)O)C(=O)O)C(=O)O)C(=O)N1CCC[C@H]1C(=O)N[C@@H](CO)C(=O)N[C@@H](CO)C(=O)NCC(=O)N[C@@H](C)C(=O)N1CCC[C@H]1C(=O)N1CCC[C@H]1C(=O)N1CCC[C@H]1C(=O)N[C@@H](CO)C(N)=O)C(C)C)[C@@H](C)CC` [Compound 27, Me-Y-Aib-E-G-T-F-I-S-D-Y-S-I-Aib-L-D-R-Aib-A-Q-Aib-N-F-V-N-W-L-L-A-Q-Km-P-S-S-G-A-P-P-P-S-NH2] (H-[NMeY][Aib]EGTFISDYSI[Aib]LDR[Aib]AQ[Aib]NFVNWLLAQK([AEEA-AEEA-γGlu-γGlu-C18 diacid])PSSGAPPPS-NH2), in data set [1] (fraction unbound, dog serum), the “Dog PPB (FUplasma)” value is on record as less than 0.002. Further, in data set [5], the half-life is 77 h. Further, the MRT last in data set [5] stood at 109 h. In addition, the solubility is no less than 15 mg/mL in data set [6] (pH 7.4) and no less than 30 mg/mL in data set [6] (pH 7.4, aqueous buffer). Further, the fraction unbound at 30 min, 1000 nmol/L in data set [2] (plasma (K2-EDTA), fraction unbound, human plasma, 1000 nmol/L peptide, ultracentrifugation, read-out: Human PPB (FUplasma)) was found to be 0.0013. The “free unbound peptide in human plasma (in words)” value in data set [2] (judged for once per week (QW) dosing) is given as “optimum free unbound peptide”.

The record behind these values is patent US20230143604A1, “QW DOSING OF GIP RECEPTOR AGONIST PEPTIDE COMPOUNDS AND USES THEREOF” (TAKEDA PHARMACEUTICAL COMPANY LIMITED, priority 2020, published 2023).
